# Measurements reported in patent publication EP1767091A2, “Biocidal compositions” (Clariant Produkte (Deutschland) GmbH, priority 2005, dated 2007).
# Assays:
# [1] = Solubility of biocidal active substances in various solvents, by stepwise concentration of a 10 wt% starting solution at 25°C; format: physicochemical
# Procedure: Die nachfolgenden Beispiele dienen der näheren Erläuterung der Erfindung. Alle Prozentangaben sind Gewichtsprozente, sofern nicht anders angegeben. Tabelle 1: Löslichkeiten von bioziden Wirksubstanzen in verschiedenen Lösemitteln
# Die Löslichkeiten wurden durch schrittweises Aufkonzentrieren einer Startlösung bei 10 Gew.-% bei 25°C ermittelt. Tabelle 2: Lagerstabilität von bioziden Wirksubstanzen in verschiedenen Lösemitteln bei -5°C, +20°C und +50°C bei 14 Tagen Lagerdauer
# [2] = in Tierversuchen; cited from earlier work
# [3] = solvent N-Methylpyrrolidon (NMP), weight percent
# [4] = solvent Dipropylenglykol (DPG), weight percent
# [5] = solvent Tetraethylenglykoldimethylether (TEGDME), weight percent
# [6] = solvent TEGDME / DPG 1:2,7, weight percent
smiles,measurement,setting,value
"O=[N+]([O-])C(Br)(CO)CO [1 (V), 2-Bromo-2-nitro-1,3-propandiol]",Löslichkeit [25°C],[1]; [3],51%
"O=[N+]([O-])C(Br)(CO)CO [4(V), 2-Bromo-2-nitro-1,3-propandiol]",Löslichkeit [25°C],[1]; [4],26%
"CCCCNC(=O)OCC#CI [5(V), 3-Jod-2-propinyl-butylcarbamat]",Löslichkeit [25°C],[1]; [3],45%
"CCCCNC(=O)OCC#CI [8(V), 3-Jod-2-propinyl-butylcarbamat]",Löslichkeit [25°C],[1]; [4],34%
"N#CCCC(Br)(C#N)CBr (stereo not shown) [13(V), 1,2-Dibromo-2,4-dicyanobutan]",Löslichkeit [25°C],[1]; [3],39%
"N#CCCC(Br)(C#N)CBr (stereo not shown) [16(V), 1,2-Dibromo-2,4-dicyanobutan]",Löslichkeit [25°C],[1]; [4],21%
"O=[N+]([O-])C(Br)(CO)CO [Beispiel 2, 2-Bromo-2-nitro-1,3-propandiol]",Löslichkeit [25°C],[1]; [5],56%
"O=[N+]([O-])C(Br)(CO)CO [Beispiel 3, 2-Bromo-2-nitro-1,3-propandiol]",Löslichkeit [25°C],[1]; [6],39%
"CCCCNC(=O)OCC#CI [Beispiel 6, 3-Jod-2-propinyl-butylcarbamat]",Löslichkeit [25°C],[1]; [5],52%
"CCCCNC(=O)OCC#CI [Beispiel 7, 3-Jod-2-propinyl-butylcarbamat]",Löslichkeit [25°C],[1]; [6],50%
"N#CCCC(Br)(C#N)CBr (stereo not shown) [Beispiel 14, 1,2-Dibromo-2,4-dicyanobutan]",Löslichkeit [25°C],[1]; [5],47%
"N#CCCC(Br)(C#N)CBr (stereo not shown) [Beispiel 15, 1,2-Dibromo-2,4-dicyanobutan]",Löslichkeit [25°C],[1]; [6],34%
CN1CCCC1=O [N-Methyl-2-Pyrrolidon],fruchtschädigende Wirkung,[2],fruchtschädigende Wirkung
